Test results taken from ChEMBL document CHEMBL4376815, “The Development Process for Discovery and Clinical Advancement of Modern Antimalarials” (J Med Chem, 2019).

Tests used:
[1] = Half life in human at 30 mg/kg, po; conditions: in vivo
[2] = Metabolic stability in human assessed as paren compound remaining at […], po by LC-MS/MS analysis; format: ADME, organism-based; conditions: in vivo
[3] = tested on: Plasmodium berghei; experiment: Antimalarial activity against Plasmodium berghei infected in NMRI mouse assessed as reduction in parasite growth at 30 mg/kg, po administered daily for 3 consecutive days by flow cytometric analysis relative to control; format: functional; design: scale not given: the % may be the effect or the level left
[4] = Apparent clearance in human at 300 mg, po and measured up to 96 to 144 hrs by LC-MS/MS analysis; conditions: in vivo, read-out: CL(app) (converted)
[5] = Half life in human; format: ADME
[6] = tested on: Plasmodium vivax; experiment: Antimalarial activity against Plasmodium vivax infected in human assessed as median parasite clearance time at 30 mg/kg, po administered daily for 3 consecutive day and measured on day 5; format: functional
[7] = Cmax in Wistar Hannover rat at 10 mg/kg, po by LC-MS/MS analysis; format: ADME, organism-based; design: dose 10 mg/kg, route oral; conditions: in vivo
[8] = tested on: Plasmodium falciparum; experiment: Antimalarial activity against Plasmodium falciparum W2 infected in human erythrocytes assessed as reduction in [3H]-hypoxanthine incorporation incubated for 48 hrs followed by addition of [3H]-hypoxanthine and measured after 24 hrs by liquid scintillation counting method; format: functional, organism-based
[9] = tested on: Plasmodium berghei; experiment: Antimalarial activity against Plasmodium berghei infected in NMRI mouse assessed as reduction in parasite growth at 50 mg/kg, po administered daily for 3 consecutive days by flow cytometric analysis relative to control; format: functional; design: scale not given: the % may be the effect or the level left
[10] = AUC (infinity) in rat at 23.7 mg/kg, po and measured up to 24 hrs by LC/MS analysis; format: ADME, organism-based; design: dose 23.7 mg/kg, route oral, time infinity; conditions: in vivo
[11] = target: T1, Voltage-gated inwardly rectifying potassium channel KCNH2 (Homo sapiens, UniProt Q12809); experiment: Inhibition of human ERG by binding assay
T1 sequence (Q12809 whole entry): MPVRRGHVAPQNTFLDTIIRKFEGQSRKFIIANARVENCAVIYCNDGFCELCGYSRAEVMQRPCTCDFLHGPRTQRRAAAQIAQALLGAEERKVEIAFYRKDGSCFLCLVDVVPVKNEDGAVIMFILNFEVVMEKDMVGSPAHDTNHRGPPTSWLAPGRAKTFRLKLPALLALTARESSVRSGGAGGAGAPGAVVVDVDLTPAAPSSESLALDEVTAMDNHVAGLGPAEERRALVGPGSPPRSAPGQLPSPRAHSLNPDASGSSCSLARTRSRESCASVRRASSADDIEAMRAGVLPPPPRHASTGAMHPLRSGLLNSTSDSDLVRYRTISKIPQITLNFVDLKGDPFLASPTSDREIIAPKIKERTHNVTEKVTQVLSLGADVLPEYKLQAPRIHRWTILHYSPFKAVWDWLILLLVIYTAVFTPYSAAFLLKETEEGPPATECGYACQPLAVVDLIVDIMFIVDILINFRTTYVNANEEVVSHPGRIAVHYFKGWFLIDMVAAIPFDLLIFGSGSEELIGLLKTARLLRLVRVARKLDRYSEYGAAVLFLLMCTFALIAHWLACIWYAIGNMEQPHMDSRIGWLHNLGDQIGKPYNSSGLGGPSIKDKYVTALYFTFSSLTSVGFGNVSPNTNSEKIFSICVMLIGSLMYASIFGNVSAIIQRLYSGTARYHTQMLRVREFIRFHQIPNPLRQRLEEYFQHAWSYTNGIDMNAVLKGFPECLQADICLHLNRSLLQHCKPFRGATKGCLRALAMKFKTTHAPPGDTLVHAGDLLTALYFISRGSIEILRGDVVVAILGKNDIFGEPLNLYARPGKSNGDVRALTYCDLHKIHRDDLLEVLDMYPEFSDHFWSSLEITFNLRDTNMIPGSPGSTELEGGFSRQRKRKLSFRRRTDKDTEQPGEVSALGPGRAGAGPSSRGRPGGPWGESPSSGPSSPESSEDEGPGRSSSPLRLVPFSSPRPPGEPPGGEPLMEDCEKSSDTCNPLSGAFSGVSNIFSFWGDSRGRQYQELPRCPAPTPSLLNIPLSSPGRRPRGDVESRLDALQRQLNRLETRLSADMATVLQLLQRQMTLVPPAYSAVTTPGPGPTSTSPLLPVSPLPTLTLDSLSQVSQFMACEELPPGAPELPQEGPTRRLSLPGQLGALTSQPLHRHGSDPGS

[12] = Cytotoxicity against human THP1 cells assessed as reduction in cell viability after 4 days by XTT assay; format: cell-based; conditions: THP-1 cells
[13] = in vivo; conditions: rat, po, 23.7 mg/kg
Description: Half life in rat at 23.7 mg/kg, po and measured up to 24 hrs by LC/MS analysis

[14] = tested on: Plasmodium falciparum; experiment: Antimalarial activity against Plasmodium falciparum 7G8 infected in human erythrocytes assessed as reduction in [3H]-hypoxanthine incorporation incubated for 48 hrs followed by addition of [3H]-hypoxanthine and measured after 24 hrs by liquid scintillation counting method; format: functional, organism-based
[15] = tested on: Plasmodium berghei; experiment: Antimalarial activity against Plasmodium berghei infected in NMRI mouse assessed as mean survival days at 10 mg/kg, po administered once and measured up to 30 days; format: functional
[16] = Tmax in Beagle dog at 3 mg/kg, po by LC-MS/MS analysis; format: ADME, organism-based, Canis lupus familiaris; conditions: in vivo
[17] = target: T1, Voltage-gated inwardly rectifying potassium channel KCNH2; experiment: Inhibition of human ERG by patch clamp method
[18] = Cmax in human at […], po and measured up to 96 to 144 hrs by LC-MS/MS analysis; format: ADME, organism-based; design: route oral; conditions: in vivo
[19] = Tmax in Wistar Hannover rat at 10 mg/kg, po by LC-MS/MS analysis; format: ADME, organism-based; conditions: in vivo
[20] = in vivo; conditions: mouse, po, 24.6 mg/kg
Description: Half life in mouse at 24.6 mg/kg, po and measured up to 24 hrs by LC/MS analysis

[21] = tested on: Plasmodium berghei; experiment: Antimalarial activity against Plasmodium berghei infected in NMRI mouse assessed as mean survival days at 30 mg/kg, po administered once and measured up to 30 days; format: functional
[22] = Volume of distribution in Beagle dog at 1 mg/kg, iv by LC-MS/MS analysis; format: ADME, organism-based, Canis lupus familiaris; conditions: in vivo
[23] = tested on: Plasmodium vivax; experiment: Antimalarial activity against Plasmodium vivax infected in human assessed as parasite clearance time at 30 mg/kg, po administered daily for 3 consecutive day and measured on day 5; format: functional
[24] = tested on: Plasmodium falciparum; experiment: Antimalarial activity against Plasmodium falciparum TM91C235 infected in human erythrocytes assessed as reduction in [3H]-hypoxanthine incorporation incubated for 48 hrs followed by addition of [3H]-hypoxanthine and measured after 24 hrs by liquid scintillation counting method; format: functional, organism-based
[25] = Oral bioavailability in Beagle dog at 3 mg/kg by LC-MS/MS analysis; format: ADME, organism-based, Canis lupus familiaris; conditions: in vivo
[26] = Half life in human at 300 mg/kg, po by LC-MS/MS analysis; conditions: in vivo
[27] = Cmax in Beagle dog at 3 mg/kg, po by LC-MS/MS analysis; format: ADME, organism-based, Canis lupus familiaris; design: dose 3 mg/kg, route oral; conditions: in vivo
[28] = tested on: Plasmodium falciparum; experiment: Antimalarial activity against Plasmodium falciparum 3D7 infected in human erythrocytes assessed as reduction in [3H]-hypoxanthine incorporation incubated for 48 hrs followed by addition of [3H]-hypoxanthine and measured after 24 hrs by liquid scintillation counting method; format: functional, organism-based
[29] = Cytotoxicity against human HepG2 cells assessed as reduction in cell viability after 4 days by XTT assay; format: cell-based
[30] = Cmax in human at 150 mg, po for 3 days and measured on day 1 by LC-MS/MS analysis; conditions: in vivo
[31] = Oral bioavailability in mouse at 24.6 mg/kg and measured up to 24 hrs by LC/MS analysis; format: ADME, organism-based; conditions: in vivo
[32] = tested on: Plasmodium berghei; experiment: Antimalarial activity against Plasmodium berghei infected in NMRI mouse assessed as reduction in parasite growth at 10 mg/kg, po administered once and measured after 96 hrs by flow cytometric analysis relative to control; format: functional; design: scale not given: the % may be the effect or the level left
[33] = Clearance in Beagle dog at 1 mg/kg, iv by LC-MS/MS analysis; format: ADME, organism-based, Canis lupus familiaris; conditions: in vivo
[34] = tested on: Plasmodium falciparum; experiment: Antimalarial activity against Plasmodium falciparum D6 infected in human erythrocytes assessed as reduction in [3H]-hypoxanthine incorporation incubated for 48 hrs followed by addition of [3H]-hypoxanthine and measured after 24 hrs by liquid scintillation counting method; format: functional, organism-based
[35] = tested on: Plasmodium berghei; experiment: Antimalarial activity against Plasmodium berghei infected in po dosed NMRI mouse assessed as reduction in parasite growth administered daily for 3 consecutive days by flow cytometric analysis; format: functional
[36] = Half life in Wistar Hannover rat at 5 mg/kg, iv by LC-MS/MS analysis; conditions: in vivo
[37] = tested on: Plasmodium falciparum; experiment: Antimalarial activity against Plasmodium falciparum infected in human assessed as median parasite clearance time at 30 mg/kg, po administered daily for 3 consecutive day and measured on day 5; format: functional
[38] = tested on: Plasmodium falciparum; experiment: Antimalarial activity against Plasmodium falciparum infected in human assessed as median clearance time at 30 mg/kg, po administered daily for 3 consecutive day and measured on day 5; format: functional
[39] = Tmax in human at […], po and measured up to 96 to 144 hrs by LC-MS/MS analysis; format: ADME, organism-based; conditions: in vivo
[40] = Oral bioavailability in Wistar Hannover rat at 10 mg/kg by LC-MS/MS analysis; format: ADME, organism-based; conditions: in vivo
[41] = Cmax in human at 150 mg, po for 3 days and measured on day 3 by LC-MS/MS analysis; conditions: in vivo
[42] = Drug recovery in feces of po dosed human by LC-MS/MS analysis; format: ADME, organism-based; conditions: faeces, read-out: Drug recovery
[43] = tested on: Plasmodium falciparum; experiment: Antimalarial activity against Plasmodium falciparum NF54 infected in human erythrocytes assessed as reduction in [3H]-hypoxanthine incorporation incubated for 48 hrs followed by addition of [3H]-hypoxanthine and measured after 24 hrs by liquid scintillation counting method; format: functional, organism-based

## C[C@H]1Cc2c([nH]c3cc(Cl)c(F)cc23)[C@@]2(N1)C(=O)Nc1ccc(Cl)cc12 [CIPARGAMIN]
[1]
  half-life: 20.8 h
[2]
  Stability: 75%
[3]
  Activity: 90%
[4]
  CL/F: 91.7 mL/min
[5]
  half-life: 33 h
[6]
  Time: 12 h
[7]
  Cmax: 1210 ng/mL
[8]
  EC50: 0.5 to 1.4 nM
[9]
  Activity: 100%
[10]
  AUC(0-inf): 524 µM·h
[11]
  IC50: ≥ 30000 nM
[12]
  CC50 at 96 h: > 10000 nM
[13]
  half-life at 24 h: 27.7 h
[14]
  EC50: 0.5 to 1.4 nM
[15]
  MSD: 13.3 days
[16]
  Tmax: 1.7 h
[17]
  IC50: ≥ 30000 nM
[18]
  Cmax: 2000 ng/mL
[19]
  Tmax: 5.3 h
[20]
  half-life at 24 h: 10 h
[21]
  MSD: 24.1 days
[22]
  Vd: 2.17 L/kg
[23]
  Time: 30 h
[24]
  EC50: 0.5 to 1.4 nM
[25]
  bioavailability: 68%
[26]
  half-life: 24 h
[27]
  Cmax: 868 ng/mL
[28]
  EC50: 0.5 to 1.4 nM
[29]
  CC50 at 96 h: > 10000 nM
[30]
  Cmax: 1170 ng/mL
[31]
  bioavailability: 100%
[32]
  Activity: 9.96%
[33]
  clearance: 3.35 mL/min/kg
[34]
  EC50: 0.5 to 1.4 nM
[35]
  ED50: 1.2 mg/kg
  ED90: 2.7 mg/kg
  ED99: 5.3 mg/kg
[36]
  half-life: 8.2 h
[37]
  Time: 12 h
[38]
  Time: 16 h
[39]
  Tmax: 8 h
[40]
  bioavailability: 85%
[41]
  Cmax: 1770 ng/mL
[42]
  dose excreted: 32%
[43]
  EC50: 0.5 to 1.4 nM
